Test results taken from US9481712B2, “Peptidomimetics possessing photo-controlled biological activity” (priority 2013, dated 2016).
Converted amounts (≈) assume the structure as drawn. One block for each compound: values may come before it. *1 amine or outer side, *2 acyl side, *3 side chain or, on linkers, in order; H or OH if unused. Where a SMILES comes first, the peptide text is derived from it. Bridges are numbered along the chain shown (N, C = ends). [ ]: non-standard residue; d: D form. X2 = CC12SC(C(=O)NN[*:2])=CC1=C1CCCC1=C1C=C(C(=O)[*:1])SC12C; X1 = Cc1sc(C(=O)NN[*:2])cc1C1=C(c2cc(C(=O)[*:1])sc2C)CCC1; Orn = NCCC[C@H](N)C(=O)O

Experiments:
[1] = system: Escherichia coli DSM 1103; format: cell-based
Description: (§1) The antimicrobial activities of GS and its analogues were measured using broth microdilution assay using a standard protocol [Daniel Amsterdam (1996). Susceptibility testing of antimicrobials in liquid media. In: Antibiotics in laboratory medicine, Loman, V., ed., 4th ed. Williams and Wilkins, Baltimore, Md., pp. 52-111]. The peptidomimetic compounds were tested against bacteria strains Escherichia coli DSM 1103, Staphylococcus aureus DSM 1104, Staphylococcus epidermidis DSM 1708, and Staphylococcus xylosus DSM 20267. GS analogues in the “closed” form were prepared in advance by RP-HPLC and stored protecting them from light. The corresponding minimal inhibitory concentrations (MIC) are listed in Table 2, where a small MIC value indicates a high antimicrobial activity, and vice versa.

[2] = system: Staphylococcus aureus DSM 1104; format: cell-based
Description: as §1

[3] = system: Staphylococcus epidermidis DSM 1708; format: cell-based
Description: as §1

[4] = system: Staphylococcus xylosus DSM 20267; format: cell-based
Description: as §1

erythrocytes = format: cell-based, human; details: pH 7.6
Description: To test the hemolytic activities of GS and its analogues, conserved human blood samples were obtained from Karlsruhe municipal hospital and washed four times in Tris buffer, pH 7.6, at 4° C. Aliquots of the blood cells were incubated with different concentrations of the peptide/peptidomimetics for 30 min at 37° C. and subsequently centrifuged. The absorption of the supernatant at 540 nm gives the extent of hemolysis, relative to 0% as taken from the peptide-free control and 100% after treatment with Triton X-100 (not to interfere with this analysis, the samples with GS analogues in the “closed” form were back-converted to their “open” forms by 30 min exposure to the visible light). The HC50 values, where 50% of the erythrocytes were lysed, were determined from the concentration dependent curves and are listed in Table 3. Small HC50 values indicate a high hemolytic activity, and vice versa. […] This proves by several independent assays that the biological activities of the photo-switchable GS analogues could be controlled by light.

[5] = photo-conversion from "closed" to "open" form by visible light (RP-HPLC); format: physicochemical
Description: The reverse photo-conversion of the peptidomimetic GS-Sw(FP) from the “closed” to the “open” form by visible light was also tested. A solution of peptide in the pink-colored “closed”-form (in a water-acetonitrile mixture, 3:1, 100 μg/ml) was used. The conversion of the peptidomimetic from the “closed”-form to the “open”-form was determined by RP-HPLC (analytical C18 column, linear A:B gradient of 4% B/min, 1.5 ml/min flow rate) after 0.25, 1.5, 5.5, 7.5 min of irradiation by visible light. A bright halogen lamp (250 Watts) was used, and the solutions were placed in 10 cm distance from the light source. The obtained data fitted well to the exponential equation y=[…], where y is a conversion of “closed” form into the “open” form, t is the time of the illumination and r is the half-conversion time. […] The conversion from “closed” to “open” could be achieved to 100%.

Staphylococcus xylosus = assay: photo-activation on bacterial lawn (FIG. 5); format: cell-based; details: 6 or 8 μg/ml "closed" form converted 60% or 80% by visible light; 37° C. for 18 hours
From the text: The compound was applied to the bacterial lawn at different concentrations and then irradiated by visible light. Some geometrical shapes were cut out from a paper covering the entire Petri dish, such that the photo-switchable compound was converted into the “open” form only in those small areas exposed to the light. […] One further experiment aimed at finding these optimal conditions for treatment with the peptidomimetic GS-SwFP is illustrated in FIG. 5.

[6] = 250 W halogen lamp, 10 cm, water-acetonitrile 3:1, 100 μg/ml, from exponential fit

SMILES: CC(C)C[C@@H]1NC(=O)[C@H](CCCN)NC(=O)[C@H](C(C)C)NC(=O)[C@@H]2CCCN2C(=O)[C@@H](Cc2ccccc2)NC(=O)[C@H](CC(C)C)NC(=O)[C@H](CCCN)NC(=O)[C@H](C(C)C)NC(=O)[C@@H]2CCCN2C(=O)[C@@H](Cc2ccccc2)NC1=O [GS, [PVOL^DFPVOL^DF]cyclo, reference compound] (cyclo(L[dF]PV[Orn]L[dF]PV[Orn]))
minimal inhibitory concentration (MIC) [1]: 8 µg/mL (≈ 7.01 µM)
minimal inhibitory concentration (MIC) [2]: 2 µg/mL (≈ 1.75 µM)
minimal inhibitory concentration (MIC) [3]: 2 µg/mL (≈ 1.75 µM)
minimal inhibitory concentration (MIC) [4]: 1 µg/mL (≈ 0.876 µM)
H50 (50% of hemolysis) (erythrocytes): 12 µg/mL

SMILES: CC(C)C[C@@H]1NC(=O)[C@H](CCCN)NC(=O)[C@H](C(C)C)NC(=O)[C@@H]2CCCN2C(=O)[C@@H](Cc2ccccc2)NC(=O)[C@H](CC(C)C)NC(=O)[C@H](CCCN)NC(=O)[C@H](C(C)C)NC(=O)C2=CC3=C4CCCC4=C4C=C(SC4(C)C3(C)S2)C(=O)NNC1=O (stereo partly drawn) [GS-Sw(FP), “closed”, cyclo(^DFPVOL-1b-VOL)]
minimal inhibitory concentration (MIC) [1]: >128 µg/mL
minimal inhibitory concentration (MIC) [2]: 32 µg/mL (≈ 25.8 µM)
minimal inhibitory concentration (MIC) [3]: 64 µg/mL (≈ 51.5 µM)
minimal inhibitory concentration (MIC) [4]: 32 µg/mL (≈ 25.8 µM)
H50 (50% of hemolysis) (erythrocytes): 72 µg/mL

SMILES: CC(C)C[C@@H]1NC(=O)[C@H](CCCN)NC(=O)[C@H](C(C)C)NC(=O)[C@@H]2CCCN2C(=O)C2=CC3=C4CCCC4=C4C=C(SC4(C)C3(C)S2)C(=O)NNC(=O)[C@H](CCCN)NC(=O)[C@H](C(C)C)NC(=O)[C@@H]2CCCN2C(=O)[C@@H](Cc2ccccc2)NC1=O (stereo partly drawn) [GS-Sw(LF), “closed”, cyclo(^DFPVO-1b-PVOL)] (PV[Orn]L[dF]PV[Orn]; linker N-C via X2)
minimal inhibitory concentration (MIC) [1]: 64 µg/mL (≈ 52.2 µM)
minimal inhibitory concentration (MIC) [2]: 128 µg/mL (≈ 104 µM)
minimal inhibitory concentration (MIC) [3]: 128 µg/mL (≈ 104 µM)
minimal inhibitory concentration (MIC) [4]: 128 µg/mL (≈ 104 µM)
H50 (50% of hemolysis) (erythrocytes): >>128 μg/ml

SMILES: CC(C)C[C@@H]1NC(=O)[C@H](CCCN)NC(=O)[C@H](C(C)C)NC(=O)[C@@H]2CCCN2C(=O)[C@@H](Cc2ccccc2)NC(=O)[C@H](CC(C)C)NC(=O)[C@H](CCCN)NC(=O)C2=CC3=C4CCCC4=C4C=C(SC4(C)C3(C)S2)C(=O)NNC(=O)[C@@H](Cc2ccccc2)NC1=O (stereo partly drawn) [GS-Sw(PV), “closed”, cyclo(^DFPVOL^DF-1b-OL)] ([Orn]L[dF]PV[Orn]L[dF]; linker N-C via X2)
minimal inhibitory concentration (MIC) [1]: >128 µg/mL
minimal inhibitory concentration (MIC) [2]: 16 µg/mL (≈ 12.4 µM)
minimal inhibitory concentration (MIC) [3]: 32 µg/mL (≈ 24.8 µM)
minimal inhibitory concentration (MIC) [4]: 32 µg/mL (≈ 24.8 µM)
H50 (50% of hemolysis) (erythrocytes): 58 µg/mL

Continued, in another order:

achievable conversion from "closed" to "open" [5]: 100%
time of illumination to achieve 60% transformation "closed" to "open" [5, 6]: 7.5 min
time of illumination to achieve 80% conversion "closed" to "open" [5, 6]: 12.5 min
SMILES: Cc1sc2cc1C1=C(CCC1)c1cc(sc1C)C(=O)N[C@@H](C(C)C)C(=O)N[C@@H](CCCN)C(=O)N[C@@H](CC(C)C)C(=O)N[C@H](Cc1ccccc1)C(=O)N1CCC[C@H]1C(=O)N[C@@H](C(C)C)C(=O)N[C@@H](CCCN)C(=O)N[C@@H](CC(C)C)C(=O)NNC2=O [GS-Sw(FP), cyclo(^DFPVOL-1b-VOL)]
antimicrobial effect on bacterial lawn after activation to "open" form (Staphylococcus xylosus): pronounced antimicrobial activity

minimal inhibitory concentration (MIC) [1]: 128 µg/mL (≈ 103 µM)
minimal inhibitory concentration (MIC) [2]: 4 µg/mL (≈ 3.22 µM)
minimal inhibitory concentration (MIC) [3]: 8 µg/mL (≈ 6.44 µM)
minimal inhibitory concentration (MIC) [4]: 8 µg/mL (≈ 6.44 µM)
SMILES: Cc1sc2cc1C1=C(CCC1)c1cc(sc1C)C(=O)N[C@@H](C(C)C)C(=O)N[C@@H](CCCN)C(=O)N[C@@H](CC(C)C)C(=O)N[C@H](Cc1ccccc1)C(=O)N1CCC[C@H]1C(=O)N[C@@H](C(C)C)C(=O)N[C@@H](CCCN)C(=O)N[C@@H](CC(C)C)C(=O)NNC2=O [GS-Sw(FP), “open”, cyclo(^DFPVOL-1b-VOL)]
H50 (50% of hemolysis) (erythrocytes): 6.5 µg/mL

minimal inhibitory concentration (MIC) [1]: >128 µg/mL
minimal inhibitory concentration (MIC) [2]: 8 µg/mL (≈ 6.53 µM)
minimal inhibitory concentration (MIC) [3]: 16 µg/mL (≈ 13.1 µM)
minimal inhibitory concentration (MIC) [4]: 8 µg/mL (≈ 6.53 µM)
SMILES: Cc1sc2cc1C1=C(CCC1)c1cc(sc1C)C(=O)N1CCC[C@H]1C(=O)N[C@@H](C(C)C)C(=O)N[C@@H](CCCN)C(=O)N[C@@H](CC(C)C)C(=O)N[C@H](Cc1ccccc1)C(=O)N1CCC[C@H]1C(=O)N[C@@H](C(C)C)C(=O)N[C@@H](CCCN)C(=O)NNC2=O [GS-Sw(LF), “open”, cyclo(^DFPVO-1b-PVOL)] (PV[Orn]L[dF]PV[Orn]; linker N-C via X1)
H50 (50% of hemolysis) (erythrocytes): 47 µg/mL

minimal inhibitory concentration (MIC) [1]: >128 µg/mL
minimal inhibitory concentration (MIC) [2]: 4 µg/mL (≈ 3.1 µM)
minimal inhibitory concentration (MIC) [3]: 4 µg/mL (≈ 3.1 µM)
minimal inhibitory concentration (MIC) [4]: 4 µg/mL (≈ 3.1 µM)
SMILES: Cc1sc2cc1C1=C(CCC1)c1cc(sc1C)C(=O)N[C@@H](CCCN)C(=O)N[C@@H](CC(C)C)C(=O)N[C@H](Cc1ccccc1)C(=O)N1CCC[C@H]1C(=O)N[C@@H](C(C)C)C(=O)N[C@@H](CCCN)C(=O)N[C@@H](CC(C)C)C(=O)N[C@H](Cc1ccccc1)C(=O)NNC2=O [GS-Sw(PV), “open”, cyclo(^DFPVOL^DF-1b-OL)] ([Orn]L[dF]PV[Orn]L[dF]; linker N-C via X1)
H50 (50% of hemolysis) (erythrocytes): 6 µg/mL
